From paper PMC12029179, “6-Chlorocoumarin Conjugates with Nucleobases and Nucleosides as Potent Anti-Hepatitis C Virus Agents” (Molecules, 2025)

Assays:
[1] = system: HCV genotype 1b subgenomic replicon; experiment: Anti-HCV assay in Huh 5-2 cells (luciferase replicon readout); assay type: cell-based, hepatitis C virus (HCV); conditions: for EC50: Huh-5-2, Huh 5-2 cells, luminescence
Text: (§1) An evaluation of the antiviral effects of the conjugated compounds was initially performed in Huh 5-2 cells utilizing the HCV genotype 1b subgenomic replicon system, based on previously reported procedures. By analyzing the dose–response curves, we calculated the concentration of each compound that inhibited the viral replication by 50% (EC50) and the concentration that reduced the host-cell metabolic activity by 50% (CC50). These values were then used to compute the selectivity index (SI = CC50/EC50), which serves as an indicator of a compound’s therapeutic window. Even if an EC50 was determined from the dose–response curve in the antiviral assay, the compounds that were evaluated may not qualify as promising hits. […] It is likely that the antiviral activity observed in the other compounds is due to their nonspecific or pleiotropic effects on the host cell.
Huh 5-2 cells were plated in white, tissue culture-treated 96-well view plates (Packard, Canberra, Canada) at a density of 5 × 10^3 cells per well, using complete Dulbecco’s Modified Eagle Medium (DMEM) containing 250 µg/mL G418. Following 24 h incubation at 37 °C with 5% CO2, the medium was discarded and serial 3-fold dilutions of the test compounds—prepared in complete DMEM lacking G418—were added to reach a final volume of 100 µL per well. After an additional 4-day incubation period under the same conditions, the medium was removed, and luciferase activity was assessed using the Steady-Glo luciferase assay kit (Promega, Leiden, The Netherlands). Luminescence was measured with a Luminoskan Ascent reader (Thermo, Vantaa, Finland). The EC50 value was determined as the compound concentration resulting in a 50% decrease in luciferase signal.

Detroit 551 cells = experiment: Cell viability (MTS) assay in Detroit 551 cells; assay type: cell-based; conditions: Detroit 551 cells; for cell death at highest tested concentration: 20 μM; for IC50: Homo sapiens, 72 h incubation, tested starting at 20.0 μM, read-out: IC50 (cell survival rate of 50%)
Experimental: Detroit 551 cells, a human fibroblast cell line, are routinely employed to assess both acute and chronic toxicity in normal human cells. Evaluating the cytotoxicity of compounds in Detroit 551 cells helps to identify potential safety concerns early in drug development. The three promising leads, 7a, 7b, and 18, were tested in a Detroit 551 assay using the antineoplastic and antibiotic agent actinomycin D as a positive control.
Detroit 551 cells were harvested and seeded into a 96-well plate, then incubated at 37 °C for 24 h. A serial dilution of the test compound was prepared in eight three-fold concentrations (20,000 nM, 6667 nM, 2222 nM, 741 nM, 247 nM, 82 nM, 27 nM, and 9 nM), and 10 µL of each dilution was added to the corresponding wells. The plate was then returned to 37 °C for an additional 72 h of incubation. After this incubation, a 3-(4,5-dimethylthiazol-2-yl)-5-(3-carboxymethoxyphenyl)-2-(4-sulfophenyl)-2H-tetrazolium (MTS) assay medium (mixed in a 2:0.1 ratio of MTS–phenazine methyl sulfate (PMS)) was prepared. The plate was moved to a biological safety cabinet, and 21 µL of the MTS medium was added to each well. The plate was then incubated at 37 °C for 90 min before absorbance was measured at 490 nm on a Victor 2 plate reader (PerkinElmer, Inc., Waltham, MA, USA). Data were subsequently analyzed to assess cytotoxicity.

Huh 9-13 cells = experiment: Host-cell metabolic activity in Huh 9-13 cells; assay type: cell-based
[2] = Host-cell metabolic activity in Huh 9-13 cells; assay type: cell-based; conditions: human
[3] = Host-cell metabolic activity (MTS assay) in Huh 5-2 cells; assay type: cell-based; conditions: human
Text: as §1

HCV subgenomic replicon = experiment: Anti-HCV assay in Huh 9-13 cells (real-time quantitative RT-PCR of replicon RNA); assay type: cell-based, hepatitis C virus (HCV); conditions: for % replicon RNA: normalized against no-drug control; for EC50: Hepatitis C virus
Experimental: Furthermore, the antiviral activity of three of the hits (i.e., 7a, 7b, and 18) was validated by evaluation of the dose–response effect of treatment with the compounds at the level of viral RNA replication in the Huh 9-13 assay system. The real-time quantitative RT-PCR readout was used.
Huh 9-13 cells were seeded at 5 × 10^3 cells per well into 96-well plates containing complete DMEM supplemented with 1000 µg/mL G418. […] After 4 days of incubation, the culture medium was removed, and the cell monolayers were washed once with phosphate-buffered saline (PBS). Cells were then lysed using 350 µL of RLT buffer (Qiagen, Venlo, The Netherlands) as per the manufacturer’s protocol, and the lysates were stored at −80 °C for future analysis. Upon completion of sample collection, RNA was extracted, and the samples were analyzed through quantitative real-time PCR to measure their HCV replicon content. The real-time RT-PCR data for all samples were calibrated against the “no-drug control”.
* After collection of all samples, RNA was extracted and samples were analyzed by quantitative real-
time PCR for their HCV replicon content. Real-time RT-PCR values of all assayed samples were
normalized against the “no-drug control”.

[4] = Hepatitis C virus, primary screening, tested starting at 50 μg/mL
[5] = Hepatitis C virus, secondary screen starting at 125 μg/mL, average of triplicate
[6] = Huh 5-2 cells, primary screening starting at 50 μg/mL
[7] = Huh 5-2 cells, secondary screen starting at 125 μg/mL
[8] = compound 18 tested starting at 125 µg/mL
[9] = primary screening, tested starting at 50 μg/mL
[10] = secondary screen starting at 125 μg/mL
[11] = real-time quantitative RT-PCR readout

## O=c1oc2ccc(Cl)cc2cc1CSc1ncnc2c1ncn2[C@@H]1O[C@H](CO)[C@@H](O)[C@H]1O [Compound 7b, 6-(6′-Chlorocoumarin-3′-yl)methylthio-9-(β-D-ribofuranos-1″-yl)purine]
[1]; [4]
  EC50: 8.8 µM
[1]; [5]
  EC50: 5.6 µM
[1]; [6]
  SI (CC50/EC50): >12
[1]; [7]
  SI (CC50/EC50): >47
Detroit 551 cells
  cell death at highest tested concentration: none of the three compounds induced cell death
  IC50: > 20 µM
Huh 9-13 cells; 0.023 µg/ml
  % cell metabolism: 100%
Huh 9-13 cells; 0.069 µg/ml
  % cell metabolism: 107%
Huh 9-13 cells; 0.206 µg/ml
  % cell metabolism: 102%
Huh 9-13 cells; 0.617 µg/ml
  % cell metabolism: 108%
Huh 9-13 cells; 5.56 µg/ml
  % cell metabolism: 115%
Huh 9-13 cells; 16.67 µg/ml
  % cell metabolism: 113%
Huh 9-13 cells; 50 µg/ml
  % cell metabolism: 94%
Huh 9-13 cells; 1.852 (7b: 1.85) µg/ml
  % cell metabolism: 106%
[2]; [8]
  CC50: > 105 µM
[2]; supplement dose-response data
  CC50: > 50 µg/mL
[3]; [9]
  CC50: > 105 µM
[3]; [10]
  CC50: > 262 µM
HCV subgenomic replicon
  SI (CC50/EC50): >16
HCV subgenomic replicon; 0.023 µg/ml
  Quantity (HCV replicon RNA, real-time PCR): 1.11E-04
  % replicon RNA: 92%
HCV subgenomic replicon; 0.069 µg/ml
  Quantity (HCV replicon RNA, real-time PCR): 1.33E-04
  % replicon RNA: 110%
HCV subgenomic replicon; 0.206 µg/ml
  Quantity (HCV replicon RNA, real-time PCR): 2.07E-04
  % replicon RNA: 171%
HCV subgenomic replicon; 0.617 µg/ml
  Quantity (HCV replicon RNA, real-time PCR): 1.03E-04
  % replicon RNA: 85%
HCV subgenomic replicon; 5.56 µg/ml
  Quantity (HCV replicon RNA, real-time PCR): 2.85E-05
  % replicon RNA: 24%
HCV subgenomic replicon; 16.67 µg/ml
  Quantity (HCV replicon RNA, real-time PCR): 1.64E-05
  % replicon RNA: 14%
HCV subgenomic replicon; 50 µg/ml
  Quantity (HCV replicon RNA, real-time PCR): 3.63E-06
  % replicon RNA: 3%
HCV subgenomic replicon; 1.852 (7b: 1.85) µg/ml
  Quantity (HCV replicon RNA, real-time PCR): 9.12E-05
  % replicon RNA: 75%
HCV subgenomic replicon; [11]
  EC50: 6.6 µM
HCV subgenomic replicon; supplement dose-response data
  EC50: 3.17 µg/mL

## O=c1ccnc(SCc2cc3cc(Cl)ccc3oc2=O)[nH]1 [Compound 18, 2-[(6′-Chlorocoumarin-3′-yl)methylthio]uracil]
[1]; [4]
  EC50: 48 µM
[1]; [5]
  EC50: 87 µM
[1]; Hepatitis C virus, Huh 5-2 cells, at 125 μg/mL
  inhibition at 125 µg/mL: > 90%
[1]; [6]
  SI (CC50/EC50): >3.2
[1]; [7]
  SI (CC50/EC50): >4.5
Detroit 551 cells
  cell death at highest tested concentration: none of the three compounds induced cell death
  IC50: > 20 µM
Huh 9-13 cells; 0.977 µg/ml
  % cell metabolism: 103%
Huh 9-13 cells; 1.953 µg/ml
  % cell metabolism: 92%
Huh 9-13 cells; 3.906 µg/ml
  % cell metabolism: 109%
Huh 9-13 cells; 7.813 µg/ml
  % cell metabolism: 101%
Huh 9-13 cells; 15.625 µg/ml
  % cell metabolism: 98%
Huh 9-13 cells; 31.25 µg/ml
  % cell metabolism: 103%
Huh 9-13 cells; 62.50 µg/ml
  % cell metabolism: 99%
Huh 9-13 cells; 125 µg/ml
  % cell metabolism: 104%
[2]; [8]
  CC50: > 390 µM
[2]; supplement dose-response data
  CC50: > 125 µg/mL
[3]; [9]
  CC50: > 156 µM
[3]; [10]
  CC50: > 390 µM
HCV subgenomic replicon
  SI (CC50/EC50): >41
HCV subgenomic replicon; 0.977 µg/ml
  Quantity (HCV replicon RNA, real-time PCR): 2.11E-03
  % replicon RNA: 66%
HCV subgenomic replicon; 1.953 µg/ml
  Quantity (HCV replicon RNA, real-time PCR): 2.06E-03
  % replicon RNA: 64%
HCV subgenomic replicon; 3.906 µg/ml
  Quantity (HCV replicon RNA, real-time PCR): 1.40E-03
  % replicon RNA: 44%
HCV subgenomic replicon; 7.813 µg/ml
  Quantity (HCV replicon RNA, real-time PCR): 1.12E-03
  % replicon RNA: 35%
HCV subgenomic replicon; 15.625 µg/ml
  Quantity (HCV replicon RNA, real-time PCR): 4.59E-04
  % replicon RNA: 14%
HCV subgenomic replicon; 31.25 µg/ml
  Quantity (HCV replicon RNA, real-time PCR): 2.30E-04
  % replicon RNA: 7%
HCV subgenomic replicon; 62.50 µg/ml
  Quantity (HCV replicon RNA, real-time PCR): 6.77E-05
  % replicon RNA: 2%
HCV subgenomic replicon; 125 µg/ml
  Quantity (HCV replicon RNA, real-time PCR): 4.20E-05
  % replicon RNA: 1%
HCV subgenomic replicon; [11]
  EC50: 9.4 µM
HCV subgenomic replicon; supplement dose-response data
  EC50: 3 µg/mL
